Source: PMC9118553, “In Vivo Bioconcentration of 10 Anionic Surfactants in Rainbow Trout Explained by In Vitro Data on Partitioning and S9 Clearance” (Environmental Science & Technology, 2022)
Where two headings read alike, the source gives them in different places. Marks after values point to notes of the source that are not given here.

Legend:
[1] = RT-S9 substrate depletion assay, individual compounds, with IVIVE; conditions: for CLint,S9 / CLint,in vivo set to LOD/3 for extrapolation: s9
Method: The in vitro intrinsic clearance by the S9 fraction of rainbow trout liver was measured for the same 11 anionic surfactants used in the BCF experiment as separate compounds. […] An established RT-S9 substrate depletion assay was employed,[25]−[27] predating the currently available OECD guideline 319B.[28] A single batch of the characterized liver homogenate material was prepared at the US EPA lab in Duluth and shipped on dry ice to the testing facilities at the University of Amsterdam. The test was conducted using the same method applied for a series of cationic surfactants in Droge et al.[29] and is summarized together with the in vitro–in vivo extrapolation in Text S4.
(§1) Text S4: Trout liver S9 parent depletion assay details and IVIVE
(§2) Liver tissue was separately pooled from the same five rainbow trout (three males/two females, ~300 g, liver weight ~3 g) used also for the RT-S9 study on a series of cationic surfactants (Droge et al., 2021b). The liver sample was homogenized in an appropriate buffer and then centrifuged to yield a 13,000 x g supernatant (the ‘S9 fraction’, lacking only mitochondrial fractions). No further refinement towards microsomal fractions was made to remove cytosolic and lysosomal components.
(§3) Upon arrival at the University of Amsterdam the liver
(§4) S9 material was stored in a -80 °C freezer until use.
(§5) Individual chemicals were first dissolved in methanol and then further diluted to 20% methanol in 100 mM phosphate buffer to make a ~20 µM stock solution, which was then spiked as 10 µL in 190 µL of active S9 mixture. The active S9 mixture consisted of 100 mM potassium phosphate-buffered saline (PPBS) adjusted to pH 7.8, 2 mM β-NADPH, 2 mM UDPGA, 0.1 mM PAPS, 5 mM GSH, 10 μg/mL alamethicin (in methanol carrier; 0.1% v/v final concentration), and 2 mg/mL S9 protein. The substrate depletion assays were performed using the multiple vial method described in OECD TG 319B, employing two or three separately spiked series.
(§6) Reactions were performed at 11 °C in a temperature-controlled water bath (B. Braun Frigomix-R) that was placed on a 2 cm travel path shaker (Gerhardt LS 10) set at 45 rpm. As a positive […]
(§7) alkylsulfonates, no additional assays with inactivated RT-S9 were performed.
(§8) Reactions were quenched with 600 µL ice-cold acetonitrile. After 10 s vortexing and 5 min centrifugation (Hermle Z300, 2500 rpm), 100 µL clear supernatant was transferred into 300 µL glass inserts placed in new autosampler vials, and mixed with 100 µL pure water. Concentrations were measured using a Prominence UFLC-XR system (Shimadzu) coupled to a tandem mass spectrometer (QTRAP 4000, Applied Biosystems) with a Turbo Ion spray source operated at 400 ◦C. For chromatographic separations, a 100 x 2.1mm x 2.7 µm Supelco Ascentis Express column was used (40 °C), with eluent A: pure water with 2 mM ammonium acetate, and eluent […]
(§9) prepared in 50% acetonitrile/water, calibration curves used covered at least four points in a log-linear range. The lowest external standard to fit the log-linear calibration curve served as limit of quantification, requiring a peak of at least 10x the average noise.
(§10) Each vial was treated as an independent vial with recorded exposure time. Log-transformed concentration data of the parent compound were plotted against exposure time (min) and analysed using Graphpad PRISM 8. […]
(§11) the slope (min-1) was multiplied by -2.3 and by 60 (min h-1) to obtain a first order depletion rate […]
(§12) Extrapolation of kdep to whole body rate biotransformation rate constant (kB-S9) The basic approach to extrapolate first order depletion rate constants (k dep) to whole body

[2] = Baseline screening BCF (0.0125 DMLW, equilibrium partitioning, no biotransformation); conditions: for Log baseline BCF: determined as 0.0125 DMLW
Description: Recently, the concept of a baseline screening BCF was introduced for surfactants, based on equilibrium partitioning assuming no biotransformation.[19] The baseline screening BCF for the study chemicals exceeded the measured BCF by 1–2.5 orders of magnitude (Table S16), providing further evidence that biotransformation is an important factor influencing the elimination—and thereby the BCF—of the anionic surfactants studied here in rainbow trout. The deviation of PFOA and PFOS from the regression between BCF and DMLW (Figure 1, upper panel) is attributable to them not being biotransformed.
Table S16: Comparison of the BCF (determined with the measured concentrations in water) and the baseline screening BCF (determined as 0.0125 DMLWa)
CHEMICAL Log BCF Log baseline BCF Log difference […]
a Droge, S. T. J.; Scherpenisse, P.; Arnot, J. A.; Armitage, J. M.; McLachlan, M. S.; Nichols, J.; von der Ohe, P.; Bonnell, M.; Hodges, G. Screening the baseline fish bioconcentration potential of various types of surfactants using phospholipid binding data. Environ. Sci.: Processes Impacts

[3] = RT-S9 substrate depletion assay, mixture of 9 anionic surfactants (AnionMixture); conditions: for Slope of depletion curve (log concentration vs time): tested in a mixture
Method: An established RT-S9 substrate depletion assay was employed,[25]−[27] predating the currently available OECD guideline 319B.[28] A single batch of the characterized liver homogenate material was prepared at the US EPA lab in Duluth and shipped on dry ice to the testing facilities at the University of Amsterdam. The test was conducted using the same method applied for a series of cationic surfactants in Droge et al.[29] and is summarized together with the in vitro–in vivo extrapolation in Text S4.
as §1, §2, §3, §4, §5, §6, §7, §8, §9, §10, §11, §12

[4] = cited from earlier work; for log DMW, membrane-water distribution ratio: marked * = measured, used for IVIVE, same values as Table 3
[5] = both, rainbow trout, 1 µM, pH 7.8

Structure (SMILES)	kB-S9, biotransformation rate constant from in vitro RT-S9 assay [1]	CLint,S9 [1]	Log difference (baseline BCF vs BCF) [2]	Log baseline BCF [2]	clearance rate lower in AnionMixture compared to single compound assay (factor) [3]	Slope of depletion curve (log concentration vs time) [3]	log DMW, membrane-water distribution ratio [4]	log DMLW ([4]; measurement from Droge)	log DMLW ([4]; measurement from Droge et al.)	factor by which kB-S9 was less than kB-BCF [1]	reaction rate set to LOD/3 for extrapolation [1]	CLint,in vivo set to LOD/3 for extrapolation [1]	factor by which kB-S9 was less than kB-BCF [1, 5]	kB-S9, biotransformation rate constant from in vitro RT-S9 assay [1, 5]	Slope of depletion curve (log concentration vs time) ([1]; tested individually, 2 mg/mL S9 protein, 11 °C)
CCCCCCCCCCc1ccc(S(=O)(=O)O)cc1 [C10-1-LAS, 1-n-(p-sulfophenyl)decane]	0.041 (0.037–0.045) h^–1	0.61 mL h-1 mg protein-1	1.99 L kg-1 ww	3.20 L kg-1 ww	twofold	-0.0050 min-1	–	–	–	–	–	–	–	–	–
CCCCCCCCCCS(=O)(=O)O [C10SO3, decylsulfonate]	0.366 (0.33–0.40) h^–1	4.54 mL h-1 mg protein-1	2.48 L kg-1 ww	1.11 L kg-1 ww	6	-0.0111 min-1	3.01	3.01 ^e L kg^–1	–	–	–	–	–	–	–
CCCCCCCCCCCS(=O)(=O)O [C11SO3, undecylsulfonate]	0.225 (0.21–0.24) h^–1	3.05 mL h-1 mg protein-1	2.35 L kg-1 ww	1.49 L kg-1 ww	–	–	3.39	–	–	–	–	–	–	–	–
CCCCCCCCCCCOS(=O)(=O)O [C11SO4, undecylsulfate]	0.151 (0.136–0.166) h^–1	2.81 mL h-1 mg protein-1	2.37 L kg-1 ww	2.26 L kg-1 ww	twofold	-0.0202 min-1	4.16	–	–	–	–	–	–	–	–
CCCCCCCCCCCCOCCOCCOCCOCCOS(=O)(=O)O [C12-EO4-SO4, dodecyltetraethoxysulfate]	0.084 (0.059–0.109) h^–1	1.30 mL h-1 mg protein-1	2.38 L kg-1 ww	2.34 L kg-1 ww	–	-0.0216 min-1	4.24	–	4.24 ^f L kg^–1	–	–	–	–	–	–
CCCCCCCCCCCCCS(=O)(=O)O [C13SO3, tridecylsulfonate]	0.032 (0.028–0.036) h^–1	0.45 mL h-1 mg protein-1	1.90 L kg-1 ww	2.56 L kg-1 ww	–	–	4.46	4.46 ^e L kg^–1	–	–	–	–	–	–	–
CCCCCCCCCCCCCOS(=O)(=O)O [C13SO4, tridecylsulfate]	0.028 (0.022–0.034) h^–1	0.40 mL h-1 mg protein-1	1.78 L kg-1 ww	3.31 L kg-1 ww	–	-0.0042 min-1	5.21	5.21 ^e L kg^–1	–	–	–	–	–	–	–
CCCCCCCCCCCCCCS(=O)(=O)O [C14SO3, tetradecylsulfonate]	0.002 ^h h^–1	n.s.	1.58 L kg-1 ww	3.05 L kg-1 ww	–	-0.0010 min-1	4.95	4.95 ^e L kg^–1	–	11	0.05 h⁻¹	~ 3.5 mL h-1 g liver-1	–	–	–
CCCCCCCCCCCCCCCCS(=O)(=O)O [C16SO3, hexadecylsulfonate]	0.002 ^h h^–1	n.s.	1.15 L kg-1 ww	4.29 L kg-1 ww	–	-0.0008 min-1	6.19	–	–	–	0.05 h⁻¹	~ 3.5 mL h-1 g liver-1	–	–	–
CCCCC(CC)COC(=O)CC(C(=O)OCC(CC)CCCC)S(=O)(=O)O (stereo not shown) [DOSS, bis(2-ethylhexyl)sulfosuccinate]	–	0.14 mL h-1 mg protein-1	2.53 L kg-1 ww	2.68 L kg-1 ww	–	-0.0021 min-1	4.58	–	4.58 ^f L kg^–1	–	–	–	6	0.011 (0.009–0.013) h^–1	-0.0021 min-1
